Where two headings read alike, the source gives them in different places.
Legend:
[1] = system: LPS-activated rat neonatal microglia; assay: OPZ-stimulated TXB2 generation by LPS-activated rat neonatal microglia (immunoassay); type: cell-based; details: for IC50 / inhibition at 10 µM: Rattus norvegicus, Microglia; for IC50: OPZ 0.5 mg/mL, 70 min, LPS 0.3 ng/mL 17 h; for OPZ-stimulated TXB2 generation, % of control / OPZ-stimulated TXB2 released / inhibition at 10 µM: at 10 μM
Description: (§1) All experiments were performed with adherence to the National Institutes of Health guidelines on the use of experimental animals and with protocols approved by Midwestern University's Research and Animal Care Committee. To isolate rat neonatal microglia, cerebral cortices of 1–2 day-old Sprague-Dawley rats purchased from Harlan (Indianapolis, IN) were surgically removed and placed in cold DMEM + 10% FBS + 120 U/ml P and 12 μg/ml S, the meninges carefully removed, and brain tissue minced and dissociated with trypsin-EDTA at 36°C for 3–5 min. The mixed astroglial cell suspension was plated in either 75- or 162-cm^2 vented cell culture flasks with DMEM medium supplemented with 10% FBS + 120 U/ml P + 12 μg/ml S and grown in a humidified 5% CO2 incubator at 36°C for 12–14 days. […] Microglia were characterized as described earlier.
(§2) To study the effects of manzamines A, B, C, D, E and F on the generation of TXB2 and O2^-, rat neonatal microglia (2 × 10^5 cells/24-well cell culture clusters) were treated to the following protocol. Seventeen hours prior to the experiments, microglia cells were treated with LPS (0.3 ng/ml) in a final volume of 1 ml of DMEM supplemented with 10% FBS + 120 U/ml P + 12 μg/ml. […] O2^-, TXB2 and lactate dehydrogenase (LDH) release were assayed as described below.
(§3) Following the incubation of LPS-activated microglia with HBSS, manzamines or vehicle as explained above, PMA- (1 μM) or OPZ- (0.5 mg/mL)triggered TXB2 generation in the culture supernatants was measured using immunoassays (Cayman Chemical, Ann Arbor, MI) as indicated by the manufacturer's protocol. Results were expressed as pg/mL produced after 70 min of PMA or OPZ stimulation.

[2] = system: LPS-activated rat neonatal microglia; assay: OPZ-stimulated O2^- generation by LPS-activated rat neonatal microglia (SOD-inhibitable FCC reduction); type: cell-based; details: for IC50: OPZ 0.5 mg/mL, 70 min, LPS 0.3 ng/mL 17 h; for effect on OPZ-stimulated O2^- generation: even at 10 μM
Description: as §1, §2
(§4) O2^- generation was determined by the SOD-inhibitable reduction of FCC [23]. […] All experimental treatments were run in triplicate and in a final volume of 1 ml. Changes in FCC absorbance were measured at 550 nm using a Beckman DU-650 spectrophotometer.

[3] = system: LPS-activated rat neonatal microglia; assay: LDH release (cytotoxicity) from LPS-activated rat neonatal microglia; type: cell-based
Description: as §2, with “μg/ml. Thereafter the media was removed and replaced with 1 ml warm HBSS, one of the manzamines (0.1–10 μM final concentration) or vehicle (DMSO) was added, and the microglia incubated for fifteen minutes in a humidified 5% CO2 incubator at 35.9°C. After the fifteen minute preincubation period with either manzamines or vehicle, PMA (1 μM) or OPZ (0.5 mg/mL) was added and microglia incubated for 70 minutes in a humidified 5% CO2 incubator at 35.9°C in the presence of the manzamines or vehicle.” for “μg/ml.”
Lactate dehydrogenase (LDH) release from microglia was determined spectrophotometrically as described elsewhere. Microglia LDH release was expressed as a percentage of total LDH. Total LDH resulted from 0.1% Triton X-100-lysed microglia cells (intracellular LDH) plus LDH released to the extracellular medium.

[4] = system: LPS-activated rat neonatal microglia; assay: PMA-stimulated O2^- generation by LPS-activated rat neonatal microglia (SOD-inhibitable FCC reduction); type: cell-based; details: for IC50: PMA 1 μM, 70 min, LPS 0.3 ng/mL 17 h
Description: as §1, §2, §4

[5] = target: hypoxanthine-xanthine oxidase system (Homo sapiens, UniProt P47989); assay: Cell-free O2^- generation by hypoxanthine-xanthine oxidase system (scavenging test); type: biochemical; details: for O2^- generated by hypoxanthine-xanthine oxidase system: control (DMSO) 12 ± 1.1, test concentration not given
hypoxanthine-xanthine oxidase system, sequence (P47989 whole entry): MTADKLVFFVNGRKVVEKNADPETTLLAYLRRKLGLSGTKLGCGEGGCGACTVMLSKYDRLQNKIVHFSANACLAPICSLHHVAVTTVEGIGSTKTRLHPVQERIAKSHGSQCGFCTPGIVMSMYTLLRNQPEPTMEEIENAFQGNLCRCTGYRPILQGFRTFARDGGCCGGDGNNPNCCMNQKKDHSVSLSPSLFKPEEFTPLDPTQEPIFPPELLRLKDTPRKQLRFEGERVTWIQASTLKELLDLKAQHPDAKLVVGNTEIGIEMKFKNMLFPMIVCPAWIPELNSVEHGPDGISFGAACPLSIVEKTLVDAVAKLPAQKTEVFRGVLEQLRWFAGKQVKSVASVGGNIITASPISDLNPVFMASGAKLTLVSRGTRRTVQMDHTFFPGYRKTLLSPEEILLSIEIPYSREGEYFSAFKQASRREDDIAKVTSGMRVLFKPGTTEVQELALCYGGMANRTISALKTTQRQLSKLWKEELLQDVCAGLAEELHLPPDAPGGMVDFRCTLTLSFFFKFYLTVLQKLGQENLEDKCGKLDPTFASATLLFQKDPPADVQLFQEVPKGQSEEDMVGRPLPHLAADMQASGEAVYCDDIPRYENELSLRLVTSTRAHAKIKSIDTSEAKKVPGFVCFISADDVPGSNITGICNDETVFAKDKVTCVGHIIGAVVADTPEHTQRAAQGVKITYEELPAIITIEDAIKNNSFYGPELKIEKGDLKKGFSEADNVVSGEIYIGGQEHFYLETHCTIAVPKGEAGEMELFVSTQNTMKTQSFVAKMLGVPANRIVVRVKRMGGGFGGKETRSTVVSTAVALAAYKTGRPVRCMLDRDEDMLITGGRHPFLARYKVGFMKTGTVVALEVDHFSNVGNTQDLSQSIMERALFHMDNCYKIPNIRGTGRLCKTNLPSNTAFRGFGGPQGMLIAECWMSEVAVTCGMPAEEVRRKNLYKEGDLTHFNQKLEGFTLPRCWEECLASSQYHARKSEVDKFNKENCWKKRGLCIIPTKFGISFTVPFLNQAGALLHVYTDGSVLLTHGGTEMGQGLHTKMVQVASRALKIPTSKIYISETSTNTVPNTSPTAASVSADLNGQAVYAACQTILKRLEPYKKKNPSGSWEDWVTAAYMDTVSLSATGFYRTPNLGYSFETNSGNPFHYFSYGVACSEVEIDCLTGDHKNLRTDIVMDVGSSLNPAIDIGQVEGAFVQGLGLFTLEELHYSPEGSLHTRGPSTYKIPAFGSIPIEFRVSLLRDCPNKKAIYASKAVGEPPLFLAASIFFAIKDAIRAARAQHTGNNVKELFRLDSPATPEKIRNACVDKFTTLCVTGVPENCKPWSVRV
Description: A standard hypoxanthine-xanthine oxidase system was used as a cell-free source of O2^-. O2^- was generated by incubation of purified xanthine oxidase (0.02 Units/ml) with hypoxanthine (1.5 mM) at 37°C [21]. O2^- formation was assessed spectrophotometrically as the increase in absorbance at 550 nm associated with the SOD (30 U/mL)-inhibitable reduction FCC (50 μM) as described above for rat microglia O2^- generation and expressed in nmoles/30 minutes.

[6] = system: LPS-activated rat neonatal microglia; assay: PMA-stimulated TXB2 generation by LPS-activated rat neonatal microglia (immunoassay); type: cell-based; details: for IC50: PMA 1 μM, 70 min, LPS 0.3 ng/mL 17 h, manzamine added 15 min before
Description: as §1, §2, §3

[7] = system: LPS-induced microglia PGE2 synthesis; details: cited from earlier work
activated rat microglia = details: read-out: IC50, PMA-stimulated O2^- generation in microglia; cited from earlier work
[8] = read-out: apparent IC50, LPS-induced microglia PGE2 synthesis

| Molecule | IC50 [1] | OPZ-stimulated TXB2 released [1] | IC50 ([2]; Rattus norvegicus, Microglia) | IC50 ([4]; Rattus norvegicus, Microglia) | PMA-stimulated O2^- released ([4]; at 10 μM) | O2^- generated by hypoxanthine-xanthine oxidase system [5] | IC50 ([6]; Rattus norvegicus, Microglia) | PMA-stimulated TXB2 release, % of control ([6]; at 10 μM) | PMA-stimulated TXB2 released ([6]; at 10 μM) | further results |
| --- | --- | --- | --- | --- | --- | --- | --- | --- | --- | --- |
| C1=C\CC[C@]23CN4CCCC/C=C\CC[C@@]5(O[C@H]5[C@@H](c5nccc6c5[nH]c5ccccc56)[C@@H]2CC4)[C@@H]3NCCCC/1 [MZB, manzamine B] | 1.44 µM | 1,160 ± 207 pg of TXB2 per 200,000 microglia per 70 min | 4.17 µM | 3.16 µM | 2.14 ± 2.14 nmol of O2^- per 200,000 microglia per 70 min | 15.3 ± 2.4 nmoles/30 min | 1.6 µM | 15.5 % of control | 546.3 ± 281 pg of TXB2 per 200,000 microglia per 70 min | OPZ-stimulated TXB2 generation, % of control [1]: 25.6 % of control; OPZ-stimulated O2^- generation, % of control ([2]; at 10 μM): 16.5 % of control; OPZ-stimulated O2^- released ([2]; at 10 μM): 1.5 ± 0.7 O2^- nmol per 200,000 microglia per 70 min; concentrations cytotoxic to neonatal brain microglia [3]: above 1 μM; PMA-stimulated O2^- release, % of control ([4]; at 10 μM): 20 % of control |
| C1=C\CCCCN(CCc2nccc3c2[nH]c2ccccc23)CCCC/1 [MZC, manzamine C] | 3.34 µM | 1,345 ± 160 pg of TXB2 per 200,000 microglia per 70 min | 9.3 µM | 3.43 µM | 3.7 ± 2.2 nmol of O2^- per 200,000 microglia per 70 min | 20.7 ± 3.1 nmoles/30 min | 2.98 µM | 19.6 % of control | 677 ± 293 pg of TXB2 per 200,000 microglia per 70 min | OPZ-stimulated TXB2 generation, % of control [1]: 29.8 % of control; OPZ-stimulated O2^- generation, % of control ([2]; at 10 μM): 41.6 % of control; OPZ-stimulated O2^- released ([2]; at 10 μM): 3.9 ± 0.3 O2^- nmol per 200,000 microglia per 70 min; PMA-stimulated O2^- release, % of control ([4]; at 10 μM): 36.1 % of control |
| O[C@]12C=C(C3NCCc4c3[nH]c3ccccc43)[C@@H]3CCN(CCCC/C=C\CC1)C[C@@]31C[C@@H]3/C=C\CCCCN3[C@H]12 (some centres unmarked) [MZD, manzamine D] | > 10 µM | 3,613 ± 469 pg of TXB2 per 200,000 microglia per 70 min | > 10 µM | < 0.1 µM |  | 22.2 ± 2 nmoles/30 min | 0.23 µM | 18.8 % of control | 611 ± 342 pg of TXB2 per 200,000 microglia per 70 min | OPZ-stimulated TXB2 generation, % of control [1]: 79.9 % of control; effect on OPZ-stimulated O2^- generation [2]: did not affect; PMA-stimulated O2^- release, % of control ([4]; at 0.1 μM): 14 % of control; PMA-stimulated O2^- released ([4]; at 0.1 μM): 0.7 ± 0.7 nmol of O2^- per 200,000 microglia per 70 min |
| O=C1CCCN2[C@@H](CC1)C[C@]13CN4CCCC/C=C\CC[C@](O)(C=C(c5nccc6c5[nH]c5ccccc56)[C@@H]1CC4)[C@H]23 [MZE, manzamine E] | > 10 µM | 2,594 ± 646 pg of TXB2 per 200,000 microglia per 70 min | > 10 µM | > 10 µM | 8.5 ± 2.1 nmol of O2^- per 200,000 microglia per 70 min | 16.3 ± 2.2 nmoles/30 min | > 10 µM |  | 1,614 ± 628 pg of TXB2 per 200,000 microglia per 70 min | inhibition at 10 µM [1]: 43.1%; effect on OPZ-stimulated O2^- generation [2]: did not affect; inhibition at 10 µM ([4]; Rattus norvegicus, Microglia, at 10 μM): 26.3%; inhibition at 10 µM ([6]; Rattus norvegicus, Microglia, at 10 μM, read-out: maximum inhibition of PMA-stimulated TXB2 generation): 49.4% |
| O=C1CCCN2[C@@H](CC1)C[C@]13CN4CCCC/C=C\CC[C@](O)(C=C(c5nccc6c5[nH]c5c(O)cccc56)C1CC4)[C@H]23 (some centres unmarked) [MZF, manzamine F] | > 10 µM | 3,317 ± 121 pg of TXB2 per 200,000 microglia per 70 min | > 10 µM | > 10 µM | 12.8 ± 1.6 nmol of O2^- per 200,000 microglia per 70 min | 20.1 ± 3.6 nmoles/30 min | > 10 µM | 104.1 ± 24.7 % of control | 3,202 ± 1,139 pg of TXB2 per 200,000 microglia per 70 min | inhibition at 10 µM [1]: 26.2%; inhibition at 10 µM ([2]; Rattus norvegicus, Microglia, at 10 μM, non-statistically significant): 15.7%; PMA-stimulated O2^- release, % of control ([4]; at 10 μM): 113 ± 14.5 % of control |
| CS(=O)(=O)Nc1ccc([N+](=O)[O-])cc1OC1CCCCC1 [NS-398] |  |  |  |  |  |  |  |  |  | IC50 [7, 8]: 0.001 to 0.005 µM |
| CC(=O)Oc1ccccc1C(=O)O [acetylsalicylic acid] |  |  |  |  |  |  |  |  |  | IC50 ([7]; COX-1 inhibitor, read-out: IC50, LPS-induced microglia PGE2 synthesis): 3.12 to 10 µM |
| C=CCN1C[C@H](C(=O)N(CCCN(C)C)C(=O)NCC)C[C@@H]2c3cccc4[nH]cc(c34)C[C@H]21 [cabergoline] |  |  |  |  |  |  |  |  |  | IC50 (activated rat microglia): > 100 µM |
| CC(C(=O)O)c1ccc(-c2ccccc2)c(F)c1 (centres unmarked) [flurbiprofen] |  |  |  |  |  |  |  |  |  | IC50 ([7]; COX-1 inhibitor, read-out: apparent IC50, LPS-induced microglia PGE2 synthesis): 0.1 µM |
| COc1ccc2c(c1)c(CC(=O)O)c(C)n2C(=O)c1ccc(Cl)cc1 [indomethacin] |  |  |  |  |  |  |  |  |  | IC50 [7, 8]: 0.001 µM |
| CO[C@]12C[C@@H](COC(=O)c3cncc(Br)c3)CN(C)[C@@H]1Cc1cn(C)c3cccc2c13 [nicergoline] |  |  |  |  |  |  |  |  |  | IC50 (activated rat microglia): 10 to 15 µM |
| CCCn1cnc2c1c(=O)n(CCCCC(C)=O)c(=O)n2C [propentofylline] |  |  |  |  |  |  |  |  |  | IC50 (activated rat microglia): > 100 µM |
| superoxide dismutase: superoxide dismutase (from bovine liver), Sigma |  |  |  |  |  |  |  |  |  | effect on hypoxanthine-xanthine oxidase O2^- generation [5]: abolished |

Reference: PMC1079881, “Differential modulation of microglia superoxide anion and thromboxane B2 generation by the marine manzamines” (BMC Pharmacology, 2005)
